Results published in US8735398B2 (Bristol-Myers Squibb Company, priority 2009, dated 2014).
pEC50: −log10 of the molar value.

What follows are compounds tested on HCV 1b genotype (assay: HCV replicon assay (HCV-neo replicon cells, wild-type)). Settings: HCV 1b genotype replicon; class symbol; read-out: EC50 Range against HCV 1b.
Assay type: cell-based, Hepatitis C virus
Procedure, shortened: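 Inhibition was tested in replicon-bearing cells, both wild-type HCV-neo and lines with NS5A resistance substitutions, using the O'Boyle et al. 2005 replicon method or luciferase-reporter formats.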

Row | Compound | pEC50
1 | CN(C)[C@@H](C(=O)N1[C@H](C(=O)Nc2ccc(-c3cnc(-c4ccc(NC(=O)[C@@H]5C[C@@H]6C[C@@H]6N5C(=O)[C@@H](c5ccccc5)N(C)C)cc4)o3)cc2)C[C@@H]2C[C@@H]21)c1ccccc1 [CB-9, (1S,3S,5S,1′S,3′S,5′S)-N,N′-(1,3-oxazole-2,5-diyldi-4,1-phenylene)bis(2-((2R)-2-(dimethylamino)-2-phenylacetyl)-2-azabicyclo[3.1.0]hexane-3-carboxamide)] | > 8.34
2 | C[C@H](NC(=O)[C@](C)(O)c1ccccc1)C(=O)Nc1ccc(-c2cnc(-c3ccc(NC(=O)[C@H](C)NC(=O)[C@](C)(O)c4ccccc4)cc3)o2)cc1 [OL-57] | 7.00 to 8.34
3 | CC1(C(=O)N2CCC[C@H]2C(=O)Nc2ccc(-c3cnc(-c4ccc(NC(=O)[C@@H]5CCCN5C(=O)C5(C)CCC(=O)N5)cc4)o3)cc2)CCC(=O)N1 (stereo partly drawn) [Example D-24, (2S,2′S)-N,N′-(4,4′-(oxazole-2,5-diyl)bis(4,1-phenylene))bis(1-(2-methyl-5-oxopyrrolidine-2-carbonyl)pyrrolidine-2-carboxamide)] | 5.00 to 6.00
4 | CCCC[C@H](NC(=O)Cc1ccccc1)C(=O)Nc1ccc(-c2cnc(-c3ccc(NC(=O)[C@H](CCCC)NC(=O)Cc4ccccc4)cc3)o2)cc1 [JG-17, (2S,2′S)-N,N′-(4,4′-(oxazole-2,5-diyl)bis(4,1-phenylene))bis(2-(2-phenylacetamido)hexanamide)] | 6.00 to 7.00
5 | CN(C)C(C(=O)N1CCC[C@H]1C(=O)Nc1ccc(-c2cnc(-c3ccc(NC(=O)[C@@H]4CCCN4C(=O)C(c4ccc(F)cc4F)N(C)C)cc3)o2)cc1)c1ccc(F)cc1F (single isomer, unassigned) [Example D-7] | 7.00 to 8.34
6 | CC(C)(C)OC(=O)N1CCCC1(Cc1ccccc1)C(=O)N1CCC[C@H]1C(=O)Nc1ccc(-c2cnc(-c3ccc(NC(=O)[C@@H]4CCCN4C(=O)C4(Cc5ccccc5)CCCN4C(=O)OC(C)(C)C)cc3)o2)cc1 (stereo partly drawn) [Example D-33, di-tert-butyl 2,2′-(1,3-oxazole-2,5-diylbis(4,1-phenylenecarbamoyl(2S)-2,1-pyrrolidinediylcarbonyl))bis(2-benzyl-1-pyrrolidinecarboxylate)] | 5.00 to 6.00
7 | CC(C)(C)OC(=O)N1C(C(=O)N2CCCC2C(=O)Nc2ccc(-c3cnc(-c4ccc(NC(=O)C5CCCN5C(=O)C5CC6CC6N5C(=O)OC(C)(C)C)cc4)o3)cc2)CC2CC21 [Example D-31, di-tert-butyl (1S,3S,5S,1′S,3′S,5′S)-3,3′-(1,3-oxazole-2,5-diylbis(4,1-phenylenecarbamoyl(2S)-2,1-pyrrolidinediylcarbonyl))bis(2-azabicyclo[3.1.0]hexane-2-carboxylate)] | 5.00 to 6.00

Same assay, conditions: HCV 1b genotype replicon; class symbols; read-out: EC50 Range against HCV 1b

Row | Compound | pEC50
8 | O=C(O)CCC(=O)N1CCC[C@H]1C(=O)Nc1ccc(-c2cnc(-c3ccc(NC(=O)[C@@H]4CCCN4C(=O)CCC(=O)O)cc3)o2)cc1 [XY-13, 4,4′-(1,3-oxazole-2,5-diylbis(4,1-phenylenecarbamoyl(2S)-2,1-pyrrolidinediyl))bis(4-oxobutanoic acid)] | 5.00 to 6.00

Same assay, conditions: HCV 1b genotype replicon; read-out: EC50 1b

Row | Compound | pEC50
9 | O=C(O)CCC(=O)N1CCC[C@H]1C(=O)Nc1ccc(-c2cnc(-c3ccc(NC(=O)[C@@H]4CCCN4C(=O)CCC(=O)O)cc3)o2)cc1 [XY-13, 4,4′-(1,3-oxazole-2,5-diylbis(4,1-phenylenecarbamoyl(2S)-2,1-pyrrolidinediyl))bis(4-oxobutanoic acid)] | 5.34
10 | CC1(C(=O)N2CCC[C@H]2C(=O)Nc2ccc(-c3cnc(-c4ccc(NC(=O)[C@@H]5CCCN5C(=O)C5(C)CCC(=O)N5)cc4)o3)cc2)CCC(=O)N1 (stereo partly drawn) [Example D-24, (2S,2′S)-N,N′-(4,4′-(oxazole-2,5-diyl)bis(4,1-phenylene))bis(1-(2-methyl-5-oxopyrrolidine-2-carbonyl)pyrrolidine-2-carboxamide)] | 5.29

Same assay, conditions: Hepatitis C virus, HCV 1b genotype replicon; class symbol; read-out: EC50 Range against HCV 1b

Row | Compound | pEC50
11 | Cn1nc(-c2ccc(NC(=O)[C@@H]3CCCN3C(=O)OCc3ccccc3)cc2)cc1-c1ccc(NC(=O)[C@@H]2CCCN2C(=O)OCc2ccccc2)cc1 [FY-3, dibenzyl (2S,2′S)-2,2′-((1-methyl-1H-pyrazole-3,5-diyl)bis(4,1-phenylenecarbamoyl))di(1-pyrrolidinecarboxylate)] | 6.00 to 7.00
12 | CC(C)[C@H](NC(=O)Cc1ccccc1)C(=O)Nc1ccc(-c2cnc(-c3ccc(NC(=O)[C@@H](NC(=O)Cc4ccccc4)C(C)C)cc3)o2)cc1 [JG-12, (2S,2′S)-N,N′-(1,3-oxazole-2,5-diyldi-4,1-phenylene)bis(3-methyl-2-((phenylacetyl)amino)butanamide)] | 7.00 to 8.34
13 | O=C(Nc1ccc(-c2cnc(-c3ccc(NC(=O)N[C@@H]4CCN(C(=O)[C@@H](O)c5ccccc5)C4)cc3)o2)cc1)N[C@@H]1CCN(C(=O)[C@@H](O)c2ccccc2)C1 [FY-6, N′,N′″-(1,3-oxazole-2,5-diyldi-4,1-phenylene)bis(1-((3R)-1-((2S)-2-hydroxy-2-phenylacetyl)-3-pyrrolidinyl)urea)] | 6.00 to 7.00
14 | CN(C)[C@@H](C(=O)N1CCC[C@H]1C(=O)Nc1ccc(-c2ccc(-c3ccc(NC(=O)[C@@H]4CCCN4C(=O)[C@H](O)c4ccccc4)cc3)o2)cc1)c1ccccc1 [JG-66, (2S)-1-((2R)-2-(dimethylamino)-2-phenylacetyl)-N-(4-(5-(4-((((2S)-1-((2R)-2-hydroxy-2-phenylacetyl)-2-pyrrolidinyl)carbonyl)amino)phenyl)-2-furyl)phenyl)-2-pyrrolidinecarboxamide] | > 8.34
15 | C[C@H](NC(=O)[C@](C)(O)c1ccccc1)C(=O)Nc1ccc(-c2cc(-c3ccc(NC(=O)[C@H](C)NC(=O)[C@](C)(O)c4ccccc4)cc3)[nH]n2)cc1 [OL-46, (2R,2′R)-N,N′-(1H-pyrazole-3,5-diylbis(4,1-phenyleneimino((2S)-1-oxo-1,2-propanediyl)))bis(2-hydroxy-2-phenylpropanamide)] | 7.00 to 8.34
16 | O=C(Nc1ccc(-c2nncn2-c2ccc(NC(=O)[C@@H]3CCCN3C(=O)OCc3ccccc3)cc2)cc1)[C@@H]1CCCN1C(=O)OCc1ccccc1 [OL-14, (2S,2′S)-2,2′-[4H-1,2,4-triazole-3,4-diylbis(4,1-phenyleneiminocarbonyl)]bis-1-pyrrolidinecarboxylic acid, bis(phenylmethyl) ester] | 5.00 to 6.00
17 | CC(C)[C@@H](NC(=O)OCc1ccccc1)C(=O)Nc1ccc(-c2cnc(-c3ccc(NC(=O)[C@H](NC(=O)OCc4ccccc4)C(C)C)cc3)o2)cc1 [JG-5, dibenzyl (1,3-oxazole-2,5-diylbis(4,1-phenyleneimino((2R)-3-methyl-1-oxo-1,2-butanediyl)))biscarbamate] | 5.00 to 6.00
18 | CC(=O)N1CCC[C@H]1C(=O)Nc1ccc(-c2nnc(-c3ccc(NC(=O)[C@@H]4CCCN4C(=O)Cc4ccccc4)cc3)o2)cc1 [Example D-54, (2S)-1-acetyl-N-[4-[5-[4-[[[(2S)-1-(phenylacetyl)-2-pyrrolidinyl]carbonyl]amino]phenyl]-1,3,4-oxadiazol-2-yl]phenyl]-2-pyrrolidinecarboxamide] | 5.00 to 6.00
19 | O=C(Nc1ccc(-c2nc[nH]c2-c2ccc(NC(=O)[C@@H]3CCCN3C(=O)Cc3ccccc3)cc2)cc1)[C@@H]1CCCN1C(=O)Cc1ccccc1 [OL-10, (2S,2′S)-N,N′-(1H-imidazole-4,5-diyldi-4,1-phenylene)bis(1-(phenylacetyl)-2-pyrrolidinecarboxamide)] | 7.00 to 8.34

Same assay, conditions: Hepatitis C virus, HCV 1b genotype replicon; class symbols; read-out: EC50 Range against HCV 1b

Row | Compound | pEC50
20 | Cc1cc(C(=O)N2CCC[C@H]2C(=O)Nc2ccc(-c3cnc(-c4ccc(NC(=O)[C@@H]5CCCN5C(=O)c5cc(C)oc5C)cc4)o3)cc2)c(C)o1 [XY-34, (2S,2′S)-N,N′-(1,3-oxazole-2,5-diyldi-4,1-phenylene)bis(1-(2,5-dimethyl-3-furoyl)-2-pyrrolidinecarboxamide)] | 6.00 to 7.00
21 | CC(C)(C)O[C@@H]1C[C@@H](C(=O)Nc2ccc(-c3cnc(-c4ccc(NC(=O)[C@@H]5C[C@@H](OC(C)(C)C)CN5C(=O)C5CCCCC5)cc4)o3)cc2)N(C(=O)C2CCCCC2)C1 [XY-66, (2S,4R,2′S,4′R)-N,N′-(1,3-oxazole-2,5-diyldi-4,1-phenylene)bis(4-tert-butoxy-1-(cyclohexylcarbonyl)-2-pyrrolidinecarboxamide)] | 5.00 to 6.00
22 | COc1cccc(CC(=O)N2C[C@H](O)C[C@H]2C(=O)Nc2ccc(-c3cnc(-c4ccc(NC(=O)[C@@H]5C[C@@H](O)CN5C(=O)Cc5cccc(OC)c5)cc4)o3)cc2)c1 [XY-55, (2S,4R,2′S,4′R)-N,N′-(1,3-oxazole-2,5-diyldi-4,1-phenylene)bis(4-hydroxy-1-((3-methoxyphenyl)acetyl)-2-pyrrolidinecarboxamide)] | 6.00 to 7.00
23 | O=C(Nc1ccc(-c2cnc(-c3ccc(NC(=O)[C@@H]4CCCN4C(=O)c4cccs4)cc3)o2)cc1)[C@@H]1CCCN1C(=O)c1cccs1 [XY-1, (2S,2′S)-N,N′-(1,3-oxazole-2,5-diyldi-4,1-phenylene)bis(1-(2-thienylcarbonyl)-2-pyrrolidinecarboxamide)] | 6.00 to 7.00
24 | O=C(Nc1ccc(-c2cnc(-c3ccc(NC(=O)[C@@H]4CCCN4C(=O)CN4C(=O)OC[C@H]4c4ccccc4)cc3)o2)cc1)[C@@H]1CCCN1C(=O)CN1C(=O)OC[C@H]1c1ccccc1 [JR-21, (2S,2′S)-N,N′-(2,5-oxazolediyldi-4,1-phenylene)bis[1-[[(4R)-2-oxo-4-phenyl-3-oxazolidinyl]acetyl]-2-pyrrolidinecarboxamide]] | 5.00 to 6.00
25 | CC(C)(C)O[C@@H]1C[C@@H](C(=O)Nc2ccc(-c3cnc(-c4ccc(NC(=O)[C@@H]5C[C@@H](OC(C)(C)C)CN5C(=O)[C@H]5CCCO5)cc4)o3)cc2)N(C(=O)[C@H]2CCCO2)C1 [XY-68, (2S,4R,2′S,4′R)-N,N′-(1,3-oxazole-2,5-diyldi-4,1-phenylene)bis(4-tert-butoxy-1-((2R)-tetrahydro-2-furanylcarbonyl)-2-pyrrolidinecarboxamide)] | 6.00 to 7.00

Same assay, conditions: Hepatitis C virus, HCV 1b genotype replicon; read-out: EC50 1b

Row | Compound | pEC50
26 | CC(C)[C@@H](NC(=O)OCc1ccccc1)C(=O)Nc1ccc(-c2cnc(-c3ccc(NC(=O)[C@H](NC(=O)OCc4ccccc4)C(C)C)cc3)o2)cc1 [JG-5, dibenzyl (1,3-oxazole-2,5-diylbis(4,1-phenyleneimino((2R)-3-methyl-1-oxo-1,2-butanediyl)))biscarbamate] | 5.00
27 | CC(=O)N1CCC[C@H]1C(=O)Nc1ccc(-c2nnc(-c3ccc(NC(=O)[C@@H]4CCCN4C(=O)Cc4ccccc4)cc3)o2)cc1 [Example D-54, (2S)-1-acetyl-N-[4-[5-[4-[[[(2S)-1-(phenylacetyl)-2-pyrrolidinyl]carbonyl]amino]phenyl]-1,3,4-oxadiazol-2-yl]phenyl]-2-pyrrolidinecarboxamide] | 5.32
